Experiment [1] deals with FFPE human breast cancer tissues. Nature of the experiment: RCP detection (RCP count/μm^2 nuclei area) in catalytically de-crosslinked FFPE human breast cancer samples. Conditions: for detection of RCPs (detected object counts per nucleic area, RCP count/μm^2 nuclei area): 100 mM, 80° C., 30 minutes, compared to control de-crosslinked in a steamer for 30 minutes using citrate buffer (pH 6). The source says: A formalin-fixed, paraffin-embedded (FFPE) tissue sample was cut into thin tissue sections using a pre-warmed microtome. The sections were placed on slides and dried at a temperature higher than room temperature, followed by overnight drying at room temperature in a desiccator. Images of the sections were taken for record, e.g., in order to monitor tissue morphology and/or detachment during sample processing. In some instances, images of the sections taken after de-crosslinking were compared to those before de-crosslinking.
The slides were baked uncovered in an oven, and then calibrated to room temperature. The sections were de-paraffinized and dehydrated using xylene and absolute ethanol. The sections were then re-hydrated using an ethanol series (e.g., 96% ethanol followed by 70% ethanol), and then re-hydrated in nuclease free water (e.g., DEPC water). The slides were gently dried to allow application of a cassette to seal around the tissue sections, without letting the tissue section to dry completely.
The sections were then de-crosslinked using a catalyst disclosed herein in a buffer solution. In some instances, the a de-crosslinking buffer can function as an antigen retriever buffer. Then the sections were washed three times with RNase-free phosphate-buffered saline (PBS) or PBST (phosphate-buffered saline solution with a low-concentration detergent solution, e.g., 0.05% to 0.1% Tween™ 20) prior to application of labelling agents (e.g., detectable nucleic acid probes for nucleic acids and/or labelled antibodies for proteins) to the tissue samples.
FFPE human breast cancer tissues were sectioned to […] thickness, transferred to Superfrost© Plus slides, and processed essentially as described in Example 1. Specifically, 2-amino-5-methylbenzoic acid (Compound 1) was used as the de-crosslinking agent and applied to de-paraffinized and re-hydrated samples in a buffer solution, such as a solution of citrate buffer at pH 6 or a solution of Tris-EDTA (TE) buffer at pH 9. […]

For experiment [2] the test system is unchanged. Nature of the experiment: anti-panCK antibody staining in de-crosslinked FFPE human breast cancer samples. The note with it: various concentrations in citrate or TE buffer; compared to control de-crosslinked in a steamer. As to the method:
FFPE human breast cancer tissues were sectioned to […] thickness, transferred to Superfrost© Plus slides, and processed essentially as described in Example 1. Specifically, 2-amino-5-methylbenzoic acid (Compound 1) was used as the de-crosslinking agent and applied to de-paraffinized and re-hydrated samples in a buffer solution, such as a solution of citrate buffer at pH 6 or a solution of Tris-EDTA (TE) buffer at pH 9. The samples were incubated under various de-crosslinking temperatures (e.g., 80° C. or 95° C.) for various time periods (e.g., 15 minutes or 30 minutes). Different concentrations of the de-crosslinking agent in the buffer solutions were tested, including 0 mM, 50 mM, 100 mM, 200 mM, and 400 mM of Compound 1.
The samples were washed (e.g., in PBST) and detectable probes in a hybridization buffer (e.g., containing SSC and formamide) were hybridized to RCA products (RCPs) in the sample. The detectable probes included probes that hybridize to sequences (e.g., barcode sequences or anchor sequences) in the RCPs and comprise overhangs for hybridization of fluorescently labelled detection oligonucleotides. The samples were imaged in fluorescent microscope with 40× objective and the signals associated with the RCPs were quantified using a software. […]

Experiment [3] relates to FFPE human breast cancer, melanoma, lymph node, lung cancer, and normal lung tissues. Nature of the experiment: RCP/RNA transcript detection in de-crosslinked FFPE samples from various tissues. Conditions: across the tissue types; for visualization of transcripts GAPDH/RPLPO or MALAT-I/ACTB (RCPs): 0 mM or 200 mM, 30 minutes, compared to de-crosslinking in a steamer; for RNA/protein visualization: overlaid images of RNA detection and protein detection. The procedure:
The de-crosslinked and washed tissue samples can be immediately used for analyte detection. In some instances, circularizable probes (e.g., padlock probes) targeting MALAT-1/ACTB (nuclear/cytoplasmic) or GAPDH/RPLPO (cytoplasmic) RNA transcripts were added in hybridization buffers (e.g., including SSC and formamide) and incubated with the samples to allow hybridization of the circularizable probes to their target nucleic acids. In addition to a target hybridization region, each circularizable probe also contained a common anchor region and a barcode region. Then, the probe hybridization mixture was removed and the samples were washed. For ligation of the circularizable probes hybridized to their target nucleic acids, a ligation reaction mix (e.g., containing a SplintR® ligase buffer, RNase inhibitor and SplintR® ligase) and a rolling circle amplification (RCA) primer were added to the samples and incubated for probe circularization and RCA primer hybridization to the probes. The samples were washed and an RCA reaction mixture (containing Phi29 reaction buffer, dNTPs, Phi29 polymerase) was added and incubated for RCA of the circularized probes.
(§1) The samples were washed (e.g., in PBST) and detectable probes in a hybridization buffer (e.g., containing SSC and formamide) were hybridized to RCA products (RCPs) in the sample. The detectable probes included probes that hybridize to sequences (e.g., barcode sequences or anchor sequences) in the RCPs and comprise overhangs for hybridization of fluorescently labelled detection oligonucleotides. The samples were imaged in fluorescent microscope with 40× objective and the signals associated with the RCPs were quantified using a software. In some instances, the samples were also stained with DAPI and/or labelled antibodies, e.g., fluorescently labelled anti-Vimentin antibody or anti-panCK antibody. In some instances, once the samples were imaged to detect signals associated with the detectable probes or labelled antibodies, the samples were stripped (e.g., using a denaturing agent) and contacted with additional detectable probes or labelled antibodies for the next imaging round.
FFPE human breast cancer, melanoma, lymph node, lung cancer, and normal lung tissues were processed essentially as described in Example 1. Specifically, 2-amino-5-methylbenzoic acid (Compound 1) or (4-aminopyridin-3-yl)phosphonic acid (Compound 8) was used as the de-crosslinking agent and applied to de-paraffinized and re-hydrated samples in a buffer solution, such as a solution of citrate buffer at pH 6 or a solution of TE buffer at pH 9. […] Analytes in the de-crosslinked tissue samples were detected essentially as described in Example 2.

For experiment [4] the test system is unchanged. Nature of the experiment: anti-Vimentin antibody staining in de-crosslinked FFPE samples from various tissues. The note with it: across the tissue types, compared to de-crosslinking in a steamer and heating at 95° C. in TE buffer.
Text: as §1
FFPE human breast cancer, melanoma, lymph node, lung cancer, and normal lung tissues were processed essentially as described in Example 1. […] Analytes in the de-crosslinked tissue samples were detected essentially as described in Example 2.

The test system of experiment [5] is normal lung tissue samples. Nature of the experiment: RCP detection in catalytically de-crosslinked FFPE normal lung tissue samples. More on the design: species or system human. Conditions: compared to control samples de-crosslinked in a steamer (data not shown). The procedure:
FFPE human breast cancer, melanoma, lymph node, lung cancer, and normal lung tissues were processed essentially as described in Example 1. Specifically, 2-amino-5-methylbenzoic acid (Compound 1) or (4-aminopyridin-3-yl)phosphonic acid (Compound 8) was used as the de-crosslinking agent and applied to de-paraffinized and re-hydrated samples in a buffer solution, such as a solution of citrate buffer at pH 6 or a solution of TE buffer at pH 9. The samples were incubated under various de-crosslinking temperatures (e.g., 80° C. or 95° C.) for 30 minutes, using 0 mM or 200 mM of Compound 1 or Compound 8. Analytes in the de-crosslinked tissue samples were detected essentially as described in Example 2.
The RCPs were detected using detectable probes targeting barcode sequences for MALAT-I/ACTB or GAPDH/RPLPO or targeting the common anchor region in the RCPs (representative images in FIG. 8, left panel).

Experiment [6] has as its system FFPE mouse brain tissues. The experiment in a line: RCP signal detection in de-crosslinked FFPE mouse brain tissues. The note with it: compared to Compound 1 in citrate buffer (pH 6.8). The procedure:
FFPE mouse brain tissues were processed essentially as described in Example 1, and gene expression analysis for RNA transcripts and protein analysis (e.g., anti-GFAP antibody staining) in the dentate gyrus (DG) region were performed essentially as described in Examples 2 and 3. Four de-crosslinking agent and buffer combinations were tested: Compound 1 in citrate buffer (pH 6.8), Compound 15 in citrate buffer (pH 6.8), Compound 18 (trans-4-hydroxy-L-proline) in citrate buffer (pH 6.8), and Compound 1 in PBS (pH 7.4).

The test system of experiment [7] is FFPE human breast cancer samples. The experiment in a line: RCP detection in FFPE human breast cancer samples de-crosslinked with additives. The note with it: for detection of RCPs (detected object counts per nucleic area): 150 mM, 80° C., 30 minutes, compared to no additional additives or single additives. As to the method: (§2) FFPE human breast cancer samples sectioned to […] thickness were processed essentially as described in […]. Specifically, 2-amino-5-methylbenzoic acid (Compound 1) was used as the de-crosslinking agent and applied to de-paraffinized and re-hydrated samples in a buffer solution with various additives, such as 0.05% SDS, 0.2% SDS, 0.5% SDS, 0.05 M urea, 0.5 M urea, 0.2 μg/ml proteinase K, 0.5 μg/ml proteinase K, 1 μg/ml proteinase K, and combinations thereof. The samples were incubated at 80° C. for 30 minutes, using 150 mM of Compound 1. Analytes in the de-crosslinked tissue samples were detected essentially as described in Example 2 using circularizable probes (e.g., padlock probes) targeting ACTB, GAPDH, MALAT-1, RPLPO, Eef2, Ppib, POLR2A RNA transcripts. Detectable probes were hybridized to sequences (e.g., barcode sequences or anchor sequences) in the RCPs and comprised overhangs for hybridization of fluorescently labelled detection oligonucleotides. The samples were imaged in fluorescent microscope with 40× objective and the signals associated with the RCPs were quantified using a software.
FIG. 10A-10C show the detected object count per nucleic area (RCP count/μm^2 nuclei area) in cells of the human breast cancer samples treated with Compound 1 for de-crosslinking in the presence or absence of additives SDS, urea, and/or proteinase K as indicated. […] In addition, it was observed antibody staining (e.g., antibody positive signal intensity for Pan cytokeratin, Vimentin, and Ki67) was compatible with the catalytic de-crosslinking conditions with Compound 1 in the presence of urea and proteinase K. Tissue morphology was also observed to be preserved post workflow and detection as confirmed by H&E staining that was performed.

Experiment [8] shares this test system. Nature of the experiment: antibody staining (Pan cytokeratin, Vimentin, Ki67) in FFPE human breast cancer samples de-crosslinked with additives. Conditions: in the presence of urea and proteinase K. As to the method: as §2
(§3) FIG. 10A-10C show the detected object count per nucleic area (RCP count/μm^2 nuclei area) in cells of the human breast cancer samples treated with Compound 1 for de-crosslinking in the presence or absence of additives SDS, urea, and/or proteinase K as indicated. […]

Experiment [9] has the same test system. The experiment in a line: tissue morphology by H&E staining after de-crosslinking workflow with additives. Conditions: post workflow and detection, confirmed by H&E staining. The procedure:
as §2, §3

The values below come from patent US20240035071A1, “CATALYTIC DE-CROSSLINKING OF SAMPLES FOR IN SITU ANALYSIS” (10X Genomics, Inc., priority 2022, published 2024).

For the compound `Cc1ccc(N)c(C(=O)O)c1` [Compound 1, 2-amino-5-methylbenzoic acid], the “detection of RCPs (detected object counts per nucleic area, RCP count/μm^2 nuclei area)” value in experiment [1] (TE buffer (pH 9)) and in [1] (citrate buffer (pH 6)) was “significantly improve the detection of RCPs” in each case. Besides, the “sensitivity and RCP brightness” value in experiment [1] (citrate buffer, between about 100 and about 200 mM) was “boost sensitivity and RCP brightness”. Also, the “antibody staining (antibody positive signal intensity), anti-panCK” value in [2] is “may be improved”. The “visualization of transcripts GAPDH/RPLPO or MALAT-I/ACTB (RCPs)” value in experiment [3] is reported as “enhanced visualization”. The RNA/protein visualization entry in [3] is “enhanced RNA/protein visualization”. Further, the anti-Vimentin antibody staining entry in [4] is on record as “enhanced anti-Vimentin antibody staining”. In addition, in [5], the “RCP densities (detected object count per nucleic area, RCP count/μm^2 nuclei area)” value was “Higher RCP densities”. Moreover, in [6] (PBS (pH 7.4)), the “signal density (detected object signal intensity above local background (mean))” value (“signal density” below) is given as “improved signal density”. Moreover, the “detection of RCPs (detected object counts per nucleic area)” value in experiment [7] (in the presence of SDS and proteinase K) is “appeared to improve the detection of RCPs”; in experiment [7] (in the presence of urea and proteinase K), “appeared to improve the detection of RCPs”. Besides, the “puncta brightness and/or numbers detected” value in experiment [7] (in the presence of both 0.5 M urea and 1 μg/ml proteinase K) is “increases in puncta brightness and/or numbers detected”; in experiment [7] (in the presence of both 0.5 M urea with 0.5 μg/ml Proteinase K), “increases in puncta brightness and/or numbers detected”. Besides, the “antibody staining (antibody positive signal intensity for Pan cytokeratin, Vimentin, and Ki67)” value in experiment [8] is “compatible”. In [9], the tissue morphology result is given as “preserved”.

On to `O=C(O)[C@@H]1C[C@@H](O)CN1` [Compound 18, trans-4-hydroxy-L-proline], for which the “signal density” value in [6] (citrate buffer (pH 6.8)) was “improved signal density”.

In the case of `Nc1ccncc1P(=O)(O)O` [Compound 8, (4-aminopyridin-3-yl)phosphonic acid], in experiment [3], the “visualization of transcripts GAPDH/RPLPO or MALAT-I/ACTB (RCPs)” value is “enhanced visualization” and the RNA/protein visualization entry is “enhanced RNA/protein visualization”. Further, in experiment [4], the anti-Vimentin antibody staining result is “enhanced anti-Vimentin antibody staining”. Further, in experiment [5], the “RCP densities (detected object count per nucleic area, RCP count/μm^2 nuclei area)” value is recorded as “Higher RCP densities”.

In the case of `Nc1ccccc1P(=O)(O)O` [Compound 15, (2-aminophenyl)phosphonic acid], the “signal density” value in experiment [6] (citrate buffer (pH 6.8)) is given as “improved signal density”.
